US20080188560A1, “Cosmetic Compositions and Methods For Sensory Cooling” (priority 2004, published 2008)

Experiment: Cooling effect/cooling potential: heat of fusion by Differential Scanning Calorimeter
Format: physicochemical
Details: Pyris 1 DSC, sample cooled to −10° C., heated 10° C. per minute up to 50° C., area under the peak
Method: Four samples of the composition are prepared with 10%, 20% and 40% of the stearyl heptanoate in three samples and 40% Marrix (C12-C15 Alkyl Furmurate) in a fourth sample. Each sample is first weighed and subsequently cooled to −10° C. A Calorimeter (Pyris 1 Differential Scanning Calorimeter from Perkin Elmer) is used to apply heat to each sample at one minute increments, 10° C. per minute up to 50° C. The Calorimeter measures the heat of the sample at each increment. The resulting readings of heat are plotted against time for each sample. The Calorimeter measures the area under the peak on the plot to calculate the Heat of fusion (J/g) for each sample. The heat of fusion for the sample is the energy required to melt the sample from a solid form to a liquid form. The heat of fusion for the sample identifies the amount of energy the sample can absorb. Therefore, to correlate to the cooling on the skin, the higher the heat of fusion of a sample/material, the more heat the sample/material will absorb from the skin upon application to correspondingly create a cooling sensation on the skin.

CCCCCCCCCCCCCCCCCCOC(=O)CCCCCC [Active alone, Stearyl Heptanoate]
(ΔH) Heat of fusion: 174.3 J/g
(ΔH) Heat of fusion (listed as active alone): 174.3 J/g
(ΔH) Heat of fusion (listed as stearyl heptanoate): 74.5 J/g
